# According to patent US9469650B2, “Melampomagnolide B derivatives” (BOARD OF TRUSTEES OF THE UNIVERSITY OF ARKANSAS, priority 2013, dated 2016):
# Assays:
# [1] = test system: RXF 393; assay: panel of 60 human tumor cell lines, growth inhibition (Renal Cancer); conditions: RXF 393
# [2] = test system: HCT-15; assay: panel of 60 human tumor cell lines, growth inhibition (Colon Cancer); conditions: HCT-15
# [3] = test system: MDA-MB-468; assay: panel of 60 human tumor cell lines, growth inhibition (Breast Cancer); conditions: MDA-MB-468
# [4] = test system: K-562; assay: panel of 60 human tumor cell lines, growth inhibition (Leukemia); conditions: K-562
# [5] = test system: UACC-62; assay: panel of 60 human tumor cell lines, growth inhibition (Melanoma); conditions: UACC-62
# [6] = test system: SF-539; assay: panel of 60 human tumor cell lines, growth inhibition (CNS Cancer); conditions: SF-539
# [7] = test system: OVCAR-8; assay: panel of 60 human tumor cell lines, growth inhibition (Ovarian Cancer); conditions: OVCAR-8
# [8] = test system: A498; assay: panel of 60 human tumor cell lines, growth inhibition (Renal Cancer); conditions: A498
# [9] = test system: SR; assay: panel of 60 human tumor cell lines, growth inhibition (Leukemia)
structure (smiles),measurement,setting,value
C=C1C(=O)O[C@H]2[C@H]1CC/C(COC(=O)N1CCN(C)CC1)=C\CC[C@@]1(C)O[C@@H]21 [JVM 2-44],GI50,[1],2.55 µM
same,TGI,[1],8.91E−6
same,Mean Optical Densities,[1]; Log10 Concentration −4.0,0.329
same,Percent Growth,[1]; Log10 Concentration −4.0,−71%
same,Mean Optical Densities,[1]; Log10 Concentration −5.0,1.871
same,Percent Growth,[1]; Log10 Concentration −5.0,−5%
same,Mean Optical Densities,[1]; Log10 Concentration −6.0,1.644
same,Percent Growth,[1]; Log10 Concentration −6.0,87%
same,Mean Optical Densities,[1]; Log10 Concentration −7.0,1.692
same,Percent Growth,[1]; Log10 Concentration −7.0,96%
same,Mean Optical Densities,[1]; Log10 Concentration −8.0,1.646
same,Percent Growth,[1]; Log10 Concentration −8.0,88%
same,GI50,[2],3.01 µM
same,TGI,[2],1.42E−5
same,Mean Optical Densities,[2]; Log10 Concentration −4.0,0.108
same,Percent Growth,[2]; Log10 Concentration −4.0,−71%
same,Mean Optical Densities,[2]; Log10 Concentration −5.0,0.643
same,Percent Growth,[2]; Log10 Concentration −5.0,13%
same,Mean Optical Densities,[2]; Log10 Concentration −6.0,2.210
same,Percent Growth,[2]; Log10 Concentration −6.0,84%
same,Mean Optical Densities,[2]; Log10 Concentration −7.0,2.370
same,Percent Growth,[2]; Log10 Concentration −7.0,92%
same,Mean Optical Densities,[2]; Log10 Concentration −8.0,2.435
same,Percent Growth,[2]; Log10 Concentration −8.0,94%
same,GI50,[3],1.87 µM
same,TGI,[3],8.56E−6
same,Mean Optical Densities,[3]; Log10 Concentration −4.0,0.228
same,Percent Growth,[3]; Log10 Concentration −4.0,−71%
same,Mean Optical Densities,[3]; Log10 Concentration −5.0,0.737
same,Percent Growth,[3]; Log10 Concentration −5.0,−5%
same,Mean Optical Densities,[3]; Log10 Concentration −6.0,1.156
same,Percent Growth,[3]; Log10 Concentration −6.0,66%
same,Mean Optical Densities,[3]; Log10 Concentration −7.0,1.377
same,Percent Growth,[3]; Log10 Concentration −7.0,104%
same,Mean Optical Densities,[3]; Log10 Concentration −8.0,1.328
same,Percent Growth,[3]; Log10 Concentration −8.0,95%
same,GI50,[4],4.25 µM
same,TGI,[4],2.82E−5
same,Mean Optical Densities,[4]; Log10 Concentration −4.0,0.152
same,Percent Growth,[4]; Log10 Concentration −4.0,−25%
same,Mean Optical Densities,[4]; Log10 Concentration −5.0,0.394
same,Percent Growth,[4]; Log10 Concentration −5.0,21%
same,Mean Optical Densities,[4]; Log10 Concentration −6.0,1.109
same,Percent Growth,[4]; Log10 Concentration −6.0,99%
same,Mean Optical Densities,[4]; Log10 Concentration −7.0,1.030
same,Percent Growth,[4]; Log10 Concentration −7.0,91%
same,Mean Optical Densities,[4]; Log10 Concentration −8.0,1.141
same,Percent Growth,[4]; Log10 Concentration −8.0,103%
same,GI50,[5],6.56 µM
same,TGI,[5],2.14E−5
same,Mean Optical Densities,[5]; Log10 Concentration −4.0,0.089
same,Percent Growth,[5]; Log10 Concentration −4.0,−83%
same,Mean Optical Densities,[5]; Log10 Concentration −5.0,1.284
same,Percent Growth,[5]; Log10 Concentration −5.0,41%
same,Mean Optical Densities,[5]; Log10 Concentration −6.0,2.153
same,Percent Growth,[5]; Log10 Concentration −6.0,89%
same,Mean Optical Densities,[5]; Log10 Concentration −7.0,2.330
same,Percent Growth,[5]; Log10 Concentration −7.0,99%
same,Mean Optical Densities,[5]; Log10 Concentration −8.0,2.369
same,Percent Growth,[5]; Log10 Concentration −8.0,101%
same,GI50,[6],5.01 µM
same,TGI,[6],1.99E−5
same,Mean Optical Densities,[6]; Log10 Concentration −4.0,0.121
same,Percent Growth,[6]; Log10 Concentration −4.0,−79%
same,Mean Optical Densities,[6]; Log10 Concentration −5.0,1.049
same,Percent Growth,[6]; Log10 Concentration −5.0,34%
same,Mean Optical Densities,[6]; Log10 Concentration −6.0,1.761
same,Percent Growth,[6]; Log10 Concentration −6.0,87%
same,Mean Optical Densities,[6]; Log10 Concentration −7.0,1.799
same,Percent Growth,[6]; Log10 Concentration −7.0,89%
same,Mean Optical Densities,[6]; Log10 Concentration −8.0,1.915
same,Percent Growth,[6]; Log10 Concentration −8.0,97%
same,GI50,[7],11.1 µM
same,TGI,[7],3.06E−5
same,Mean Optical Densities,[7]; Log10 Concentration −4.0,0.184
same,Percent Growth,[7]; Log10 Concentration −4.0,−61%
same,Mean Optical Densities,[7]; Log10 Concentration −5.0,1.385
same,Percent Growth,[7]; Log10 Concentration −5.0,59%
same,Mean Optical Densities,[7]; Log10 Concentration −6.0,1.997
same,Percent Growth,[7]; Log10 Concentration −6.0,98%
same,Mean Optical Densities,[7]; Log10 Concentration −7.0,2.055
same,Percent Growth,[7]; Log10 Concentration −7.0,102%
same,Mean Optical Densities,[7]; Log10 Concentration −8.0,2.052
same,Percent Growth,[7]; Log10 Concentration −8.0,101%
same,GI50,[8],10.2 µM
same,TGI,[8],3.47E−5
same,Mean Optical Densities,[8]; Log10 Concentration −4.0,0.967
same,Percent Growth,[8]; Log10 Concentration −4.0,−43%
same,Mean Optical Densities,[8]; Log10 Concentration −5.0,2.150
same,Percent Growth,[8]; Log10 Concentration −5.0,51%
same,Mean Optical Densities,[8]; Log10 Concentration −6.0,2.296
same,Percent Growth,[8]; Log10 Concentration −6.0,67%
same,Mean Optical Densities,[8]; Log10 Concentration −7.0,2.301
same,Percent Growth,[8]; Log10 Concentration −7.0,68%
same,Mean Optical Densities,[8]; Log10 Concentration −8.0,2.357
same,Percent Growth,[8]; Log10 Concentration −8.0,74%
same,GI50,[9],2.81 µM
same,TGI,[9],3.33E−5
same,Mean Optical Densities,[9]; Log10 Concentration −4.0,0.332
same,Percent Growth,[9]; Log10 Concentration −4.0,−14%
same,Mean Optical Densities,[9]; Log10 Concentration −5.0,0.534
same,Percent Growth,[9]; Log10 Concentration −5.0,16%
same,Mean Optical Densities,[9]; Log10 Concentration −6.0,1.105
same,Percent Growth,[9]; Log10 Concentration −6.0,78%
same,Mean Optical Densities,[9]; Log10 Concentration −7.0,1.224
same,Percent Growth,[9]; Log10 Concentration −7.0,91%
same,Mean Optical Densities,[9]; Log10 Concentration −8.0,1.227
same,Percent Growth,[9]; Log10 Concentration −8.0,91%
